Assays:
GPR17 [1] = biological target: T1, GPR17 (Homo sapiens, UniProt Q13304); test: cAMP accumulation functional assay (HTRF, Schild analysis); format: cell-based; set-up: host or cells: Flp-In T-REx CHO; conditions: CHO hGPR17 cells, Schild analysis vs MDL29,951, 5 μM forskolin, read-out: cAMP assay pA2 (converted)
Outline: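 CHO Flp-In T-REx cells with doxycycline-induced human GPR17 were preincubated 30 min at room temperature in HBSS-HEPES pH 7.4 with antagonist. cAMP was then measured by HTRF after 60 min. MDL29,951 pEC50 shifts gave dose ratios, and Schild analysis gave pA2.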

GPR17 [2] = biological target: T1, GPR17; test: Calcium mobilization functional assay (GPR17 Ca2+ assay); format: cell-based; set-up: host or cells: Flp-In T-REx CHO; conditions: CHO hGPR17 cells, inhibition of 50 nM MDL29,951, Calcium 5 dye, FLIPR; read-out: Ca2+ assay pIC50 (converted)
Outline: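 Flp-In T-REx CHO cells stably expressing human GPR17, doxycycline-induced (1 μg/mL, 16-20 h), loaded 60 min with Calcium 5 dye. Inhibition by varying test-compound concentrations of the 50 nM MDL29,951 agonist response was read by fluorescence over time at room temperature. pIC50 came from 4-parameter logistic fitting.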

T1 sequence (Q13304 whole entry): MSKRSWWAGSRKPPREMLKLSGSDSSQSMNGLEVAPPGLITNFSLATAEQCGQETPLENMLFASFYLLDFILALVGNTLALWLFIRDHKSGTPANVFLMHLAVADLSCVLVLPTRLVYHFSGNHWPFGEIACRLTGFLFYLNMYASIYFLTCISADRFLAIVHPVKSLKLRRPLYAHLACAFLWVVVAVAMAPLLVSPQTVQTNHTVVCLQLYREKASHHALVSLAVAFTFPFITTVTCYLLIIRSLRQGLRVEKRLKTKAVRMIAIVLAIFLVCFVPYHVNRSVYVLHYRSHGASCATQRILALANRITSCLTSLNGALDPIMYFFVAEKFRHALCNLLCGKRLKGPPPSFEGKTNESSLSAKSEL

Row | Compound | Kb (GPR17 [1]) [nM] | IC50 (GPR17 [2]) [nM]
1 | O=S(=O)(Nc1cccc2nsnc12)c1c[nH]c2nc(Br)ccc12 [Compound I-78, N-(2,1,3-benzothiadiazol-4-yl)-6-bromo-1H-pyrrolo[2,3-b]pyridine-3-sulfonamide] | 3.16 to 31.6 | < 3.16
2 | COc1cc(C(F)(F)F)cnc1NS(=O)(=O)c1c[nH]c2cc(Cl)ccc12 [Compound I-344, 6-chloro-N-[3-methoxy-5-(trifluoromethyl)pyridin-2-yl]-1H-indole-3-sulfonamide] | 3.16 to 31.6 | 3.16 to 31.6
3 | COc1cc(CC#N)cnc1NS(=O)(=O)c1c[nH]c2cc(Cl)ccc12 [Compound I-194, 6-chloro-N-[5-(cyanomethyl)-3-methoxypyridin-2-yl]-1H-indole-3-sulfonamide] | < 3.16 | < 3.16
4 | N#CCOc1cc(F)c(NS(=O)(=O)c2csc3cc(Cl)ccc23)cc1F [Compound I-313, 6-chloro-N-[4-(cyanomethoxy)-2,5-difluorophenyl]-1-benzothiophene-3-sulfonamide] | 3.16 to 31.6 | 3.16 to 31.6
5 | N#Cc1c(Cl)ccc2c(S(=O)(=O)Nc3cc(F)c(Cl)cc3F)c[nH]c12 [Compound I-256, 6-chloro-N-(4-chloro-2,5-difluorophenyl)-7-cyano-1H-indole-3-sulfonamide] | < 3.16 | < 3.16
6 | COc1nc(NS(=O)(=O)c2c[nH]c3c2ccc2cccnc23)c(F)cc1Cl [Compound I-328, N-(5-chloro-3-fluoro-6-methoxypyridin-2-yl)-1H-pyrrolo[3,2-h]quinoline-3-sulfonamide] | < 3.16 | < 3.16
7 | N#Cc1ccc(NS(=O)(=O)c2c[nH]c3cc(C(F)(F)F)ccc23)c(F)c1 [Compound I-189, N-(4-cyano-2-fluorophenyl)-6-(trifluoromethyl)-1H-indole-3-sulfonamide] | < 3.16 | < 3.16
8 | COc1c(Cl)ccc2c(S(=O)(=O)Nc3cc(F)c(Cl)cc3F)c[nH]c12 [Compound I-244, 6-chloro-N-(4-chloro-2,5-difluorophenyl)-7-methoxy-1H-indole-3-sulfonamide] | < 3.16 | 3.16 to 31.6
9 | O=S(=O)(Nc1ccc2nsnc2c1)c1c[nH]c2cc(Cl)ccc12 [Compound I-147, N-(2,1,3-benzothiadiazol-5-yl)-6-chloro-1H-indole-3-sulfonamide] | 3.16 to 31.6 | 3.16 to 31.6
10 | O=S(=O)(Nc1ccc(Br)cc1F)c1c[nH]c2cc(Cl)ccc12 [Compound I-212, N-(4-bromo-2-fluorophenyl)-6-chloro-1H-indole-3-sulfonamide] | < 3.16 | 3.16 to 31.6
11 | N#Cc1ccc2c(S(=O)(=O)Nc3ccc(Cl)cc3F)c[nH]c2c1 [Compound I-76, N-(4-chloro-2-fluorophenyl)-6-cyano-1H-indole-3-sulfonamide] | > 31.6 | > 31.6
12 | CCO/C=C/c1cc(F)c(NS(=O)(=O)c2c[nH]c3cc(Cl)ccc23)nc1F [Compound I-332, 6-chloro-N-{5-[(E)-2-ethoxyethenyl]-3,6-difluoropyridin-2-yl}-1H-indole-3-sulfonamide] | < 3.16 | 3.16 to 31.6
13 | Cc1c(Br)ccc2c(S(=O)(=O)Nc3ncc(Cl)cc3F)c[nH]c12 [Compound I-326, 6-bromo-N-(5-chloro-3-fluoropyridin-2-yl)-7-methyl-1H-indole-3-sulfonamide] | < 3.16 | 3.16 to 31.6
14 | N#Cc1cc(F)c(NS(=O)(=O)c2c[nH]c3cc(Cl)ccc23)c(F)c1 [Compound I-182, 6-chloro-N-(4-cyano-2,6-difluorophenyl)-1H-indole-3-sulfonamide] | 3.16 to 31.6 | < 3.16
15 | COc1nc(NS(=O)(=O)c2coc3cc(Cl)ccc23)c(F)cc1Cl [Compound I-346, 6-chloro-N-(5-chloro-3-fluoro-6-methoxypyridin-2-yl)-1-benzofuran-3-sulfonamide] | 3.16 to 31.6 | 3.16 to 31.6
16 | CS(=O)(=O)c1ccc2c(S(=O)(=O)Nc3ccc(Cl)cc3F)c[nH]c2c1 [Compound I-50, N-(4-chloro-2-fluorophenyl)-6-(methylsulfonyl)-1H-indole-3-sulfonamide] | 3.16 to 31.6 | 3.16 to 31.6

From patent publication US12071404B2, “Aza (indole)-, benzothiophene-, and benzofuran-3-sulfonamides” (UCB Pharma GmbH, priority 2016, dated 2024)
